In patent US4141993A, “Compounds of diphenylcyclopentylamine type and methods for their preparation” (priority 1971, dated 1979):
Where two headings read alike, the source gives them in different places.

Experiments:
5-HTP response = 5-HTP response potentiation test; assay type: in vivo, mice; conditions: for 5-HTP potentiation, 25 mg/kg i.p., 1h: drug 1 h before 5-HTP; for 5-HTP potentiation, 25 mg/kg i.p., 1h / 5-HTP potentiation, 25 mg/kg i.p., 4h: 0 = without effect; for 5-HTP potentiation, 25 mg/kg i.p., 4h: drug 4 h before 5-HTP
Protocol: 1. 5-HTP response potentiation test
Inhibition of the uptake of 5-HT potentiates the effects of administered 5-hydroxytryptophane (5-HTP) probably by increasing the amount of 5-HT at the receptor.
These small movements are quantitatively measured in an activity box, type Animex, which can distinguish between small and gross movements. The activity is measured during 20 minutes and only in the case the animals have a fullblown syndrome.

[1] = first observable after; cited from earlier work
uptake of tritiated 5-HT [2] = assay: Inhibition of the uptake of tritiated 5-HT in vivo (drug i.p., uptake in midbrain slices); parameters: species or system mice; conditions: for ED50: Mus musculus, ip, 0.5 h, read-out: Inhibition (50 %) of uptake in vivo, 5-HT (ED50), i.p., half an hour before the animals were killed
Protocol: (§1) 1. Inhibition of the uptake of tritiated 5-HT in vitro and in vivo
(§2) The drugs were administered intraperitoneally half an hour before the animals were killed and the midbrain was taken out and sliced and incubated in a mixture consisting of, per 100 mg of brain slices, 0.2 μmole of ^3 H-5-HT and 1 μmole of glucose in 2 ml of Krebs-Henseleit buffer, pH 7.4. The incubation time was 5 minutes with 5 minutes of preincubation before ^3 H-5-HT was added. The radioactive ^3 H-5-HT taken up in the slices was extracted with ethanol and the amount was determined by liquid scintillation. […] Active uptake is defined as that part of the radioactive uptake which is inhibited by a high concentration of cocaine. All doses were given at least to four animals.

mice [3] = assay: Motor activity in mice (exploratory activity, locomotion cage); assay type: in vivo; conditions: Mus musculus, ip, 1 h, read-out: Motor activity ID50
Protocol: The exploratory activity of mice was recorded in a locomotion cage in which the movements were counted each time the animals cross-circuit an electrical current in the bottom plate. The activity was recorded for ten minutes one hour after the administration of the drug. The animals were tested individually. Groups of six mice were used and the mice were only used once. The activity was expressed in percent of the activity of control groups ran simultaneously.

Dopa response = Dopa response potentiation test; assay type: in vivo, mice; conditions: score, pargyline pretreated; for L-DOPA potentiation, 10 mg/kg i.p., 1h: drug 1 h before 1-Dopa 100 mg/kg i.p.; for L-DOPA potentiation, 10 mg/kg i.p., 4h: drug 4 h before 1-Dopa 100 mg/kg i.p.
Protocol: Mice in groups of 3 are pretreated with Pargyline® 40 mg/kg p.o. about 10-16 hours before the test. […] 1-Dopa gives a characteristic syndrome which is scored as follows:
1. piloerection, slight salivation, slight increased motor activity
2. piloerection, salivation, marked increased motor activity and irritability
3. piloerection, profuse salivation, marked irritability and reactivity, jumping, squeaking, fighting.
The control groups are Amitriptyline (20 mg/kg i.p. 4 hours before 1-Dopa) and saline (1 hour before 1-Dopa). […] The test drugs were all tested at 10 mg/kg i.p.

uptake of tritiated 5-HT [4] = assay: Inhibition of the uptake of tritiated 5-HT in vitro (midbrain slices); assay type: biochemical, mice; conditions: for Inhibition (50 %) of uptake in vitro, 5-HT: 5-hydroxytryptamine 10^-7 M
Protocol: as §1
as §2, with “The drugs were administered intraperitoneally half an hour before the animals were killed and the midbrain was taken” left out, “0.2 μmole of ^3 H-5-HT and 1 μmole of glucose in” left out

[5] = test system: uptake of tritiated noradrenaline; assay: Inhibition of the uptake of tritiated noradrenaline in vivo (drug i.p., uptake in cortex slices); conditions: for ED50: ip, 1 h, read-out: Inhibition (50 %) of uptake in vivo, NA (ED50), i.p., half or one hour before the animals were killed
Protocol: (§3) 2. Inhibition of the uptake of tritiated noradrenaline in vitro and in vivo
(§4) The animals were killed half or one hour after the administration of the drugs in vivo (i.p.). The slices, made from cortex, were preincubated for five minutes and incubated with 0.1 μmole per ml of ^3 H-noradrenaline for further five minutes. The incubation mixture consisted of 0.2 μmole of ^3 H-NA and the brain slices in 2 ml of Krebs-Henseleits buffer, pH 7.4. The radioactive ^3 H-NA taken up in the slices was extracted with ethanol and the amount was determined by liquid scintillation. The dose producing 50 percent decrease of the active uptake (ED50) was determined graphically from dose response curves. At least four animals were used at each dose level.

mice [6] = assay: Anticholinergic effect (mydriasis) in mice; assay type: in vivo
Protocol: (§5) Acute toxicity, behavior and anticholinergic effect (mydriasis) in mice
(§6) The compounds were given by intravenous route to 3 mice. […] Seizures, gait, sedation and grip strength were recorded. […] PD200 is the dose which increases the pupil by 200%.

[7] = test system: uptake of tritiated noradrenaline; assay: Inhibition of the uptake of tritiated noradrenaline in vitro (cortex slices); assay type: biochemical; conditions: for Inhibition (50 %) of uptake in vitro, NA: dl-noradrenaline 10^-7 M
Protocol: as §3
as §4, with “The method is found in European Journal of Pharmacology 2 (1967), 181- 186. The animals” for “The animals”
Inhibition (50 %) of uptake
^2) Na = dl-noradrenaline 10^-7 M

Acute toxicity in mice = conditions: mouse, in vivo, iv, within 24 hours
Protocol: as §5, §6

uptake of tritiated 5-HT [8] = assay: Inhibition of the uptake of tritiated 5-HT in vivo (drug i.p., uptake in midbrain slices); parameters: species or system mice
rats = assay: Drug induced arrhythmia in rats: ECG changes and LD50; assay type: in vivo
Source text: (§7) Drug Induced Arrhythmia in Rats: ECG changes and LD50
(§8) Rats were infused intravenously with test drugs and relevant reference compounds. The doses are increased stepwise. The first dose causing ECG changes of any type was noted, and thereafter the doses were increased up to the lethal dose.

[9] = as above; assay type: in vivo; conditions: in vivo, iv; i.v. infusion, rat, stepwise increased doses
Source text: as §7, §8

CN(C)CCCN1c2ccccc2CCc2ccccc21 [Imipramine, imipramine, reference compound]
potentiation of dl-5-HTP by reference, in words (5-HTP response; control group): constantly potentiated dl-5-HTP | 5-HTP potentiation, 25 mg/kg i.p., 1h (5-HTP response): 25 | 5-HTP potentiation, 25 mg/kg i.p., 4h (5-HTP response): 0 | onset of antidepressive effect [1]: 3 weeks | ED50 (uptake of tritiated 5-HT [2]): 24 mg/kg | ED50 (mice [3]): 45 mg/kg | L-DOPA potentiation, 10 mg/kg i.p., 1h (Dopa response): 2 | L-DOPA potentiation, 10 mg/kg i.p., 4h (Dopa response): 1 | Inhibition (50 %) of uptake in vitro, 5-HT (uptake of tritiated 5-HT [4]): 0.10 µg/mL | ED50 [5]: 6 mg/kg | Mydriasis PD200 (mice [6]; i.v., 10 minutes after injection, dose which increases the pupil by 200%): 13 mg/kg | Inhibition (50 %) of uptake in vitro, NA [7]: 0.06 µg/mL

NC1CCC(c2ccccc2)(c2ccccc2)C1 (stereo not shown) [PUB 105, 1-Amino-3,3-diphenylcyclopentane]
LD50 at 24 h (Acute toxicity in mice): 22 mg/kg | 5-HTP potentiation, 25 mg/kg i.p., 1h (5-HTP response): 12.5 | 5-HTP potentiation, 25 mg/kg i.p., 4h (5-HTP response): 25 | uptake inhibition still pronounced after (uptake of tritiated 5-HT [8]): 16 h | time of maximal uptake inhibition (uptake of tritiated 5-HT [8]; uptake inhibition increases with time): four | duration of inhibition of the uptake mechanism compared with imipramine (uptake of tritiated 5-HT [8]; uptake of 5-HT and noradrenaline): much longer time than does the reference substance imipramine | ECG changes i.v. rat (first dose causing ECG changes of any type) (rats; i.v. infusion): 14 | dose causing ECG changes relative to that of imipramine (rats; i.v., rat): 3 times | LD50 [9]: 58 mg/kg | ED50 (uptake of tritiated 5-HT [2]): 10 to 20 mg/kg | inhibition of uptake of 5-hydroxytryptamine in vivo, in words (uptake of tritiated 5-HT [2]; in vivo): strong inhibition | ED50 (mice [3]; i.p., one hour after administration): > 50 mg/kg | L-DOPA potentiation, 10 mg/kg i.p., 1h (Dopa response): 3 | L-DOPA potentiation, 10 mg/kg i.p., 4h (Dopa response): 3 | Inhibition (50 %) of uptake in vitro, 5-HT (uptake of tritiated 5-HT [4]): 0.18 µg/mL | inhibition of uptake of 5-hydroxytryptamine in vitro, in words (uptake of tritiated 5-HT [4]; in vitro): potent inhibitors | inhibition of uptake of noradrenaline in vivo, in words ([5]; in vivo): strong inhibition | ED50 [5]: 20 mg/kg | selectivity towards noradrenaline ([5]; uptake inhibition, compared with imipramine): substantially nonselective ability towards noradrenaline | Mydriasis PD200 (mice [6]; mouse, in vivo, iv, 10 min): 19 mg/kg | Inhibition (50 %) of uptake in vitro, NA [7]: 0.15 µg/mL | inhibition of uptake of noradrenaline in vitro, in words ([7]; in vitro): potent inhibitors
